Assay results from US12052991B2, “Substituted pyridinyloxybenzenes and salts thereof and use thereof as herbicidal agents” (Bayer Aktiengesellschaft, priority 2018, dated 2024).

Assays:
Type in all cases: in vivo
[1] = tested on: harmful plants AGSTE, DIPTE, LOLPE, MATCH, POAAN, SETVI, STEME and VERPE; assay: Herbicidal early post-emergence action, summary of Tables A1-A8; details: application rate of 1900 g of active ingredient per hectare; summary in words
Procedure: (§1) Seeds of monocotyledonous and dicotyledonous weed plants were placed in 96-well microtiter plates in quartz sand and grown in a climatized chamber under controlled growth conditions. 5 to 7 days after sowing, the test plants were treated at the cotyledon stage. The compounds according to the invention, formulated in the form of emulsion concentrates (EC), were applied with a water application rate of the equivalent of 2200 liters per hectare. After the test plants had been left to stand in the climatized chamber for 9 to 12 days under optimum growth conditions, the effect of the preparations was scored visually in comparison to untreated controls. For example, 100% activity=the plants have died, 0% activity=like control plants.
Tables A1 to A8 below show the effects of selected compounds of the general formula (I) according to Table 1 on various harmful plants and an application rate corresponding to 1900 g/ha, which were obtained by the experimental procedure mentioned above.
As the results of Tables A1-A8 show, compounds no.

[2] = tested on: Diplotaxis tenuifolia (DIPTE); assay: Herbicidal early post-emergence action (Table A5); details: 1900 g/ha; scored visually 9 to 12 days after treatment; 100% = plants have died, 0% = like control plants
Procedure: as §1, with “plants. Tables A1 to A8 below show the effects of selected compounds of the general formula (I) according to Table 1 on various harmful plants and an application rate corresponding to 1900 g/ha, which were obtained by the experimental procedure mentioned above.” for “plants.”

Agrostis tenuis (AGSTE) = assay: Herbicidal early post-emergence action (Table A1); details: 1900 g/ha; scored visually 9 to 12 days after treatment; 100% = plants have died, 0% = like control plants
Procedure: as §1, with “plants. Tables A1 to A8 below show the effects of selected compounds of the general formula (I) according to Table 1 on various harmful plants and an application rate corresponding to 1900 g/ha, which were obtained by the experimental procedure mentioned above.” for “plants.”

Stellaria media (STEME) = assay: Herbicidal early post-emergence action (Table A7); details: 1900 g/ha; scored visually 9 to 12 days after treatment; 100% = plants have died, 0% = like control plants
Procedure: as §1, with “plants. Tables A1 to A8 below show the effects of selected compounds of the general formula (I) according to Table 1 on various harmful plants and an application rate corresponding to 1900 g/ha, which were obtained by the experimental procedure mentioned above.” for “plants.”

Setaria viridis (SETVI) = assay: Herbicidal early post-emergence action (Table A4); details: 1900 g/ha; scored visually 9 to 12 days after treatment; 100% = plants have died, 0% = like control plants
Procedure: as §1, with “plants. Tables A1 to A8 below show the effects of selected compounds of the general formula (I) according to Table 1 on various harmful plants and an application rate corresponding to 1900 g/ha, which were obtained by the experimental procedure mentioned above.” for “plants.”

[3] = tested on: Matricaria chamonilla (MATCH); assay: Herbicidal early post-emergence action (Table A6); details: 1900 g/ha; scored visually 9 to 12 days after treatment; 100% = plants have died, 0% = like control plants
Procedure: as §1, with “plants. Tables A1 to A8 below show the effects of selected compounds of the general formula (I) according to Table 1 on various harmful plants and an application rate corresponding to 1900 g/ha, which were obtained by the experimental procedure mentioned above.” for “plants.”

Poa annua (POAAN) = assay: Herbicidal early post-emergence action (Table A3); details: 1900 g/ha; scored visually 9 to 12 days after treatment; 100% = plants have died, 0% = like control plants
Procedure: as §1, with “plants. Tables A1 to A8 below show the effects of selected compounds of the general formula (I) according to Table 1 on various harmful plants and an application rate corresponding to 1900 g/ha, which were obtained by the experimental procedure mentioned above.” for “plants.”

Lolium perenne (LOLPE) = assay: Herbicidal early post-emergence action (Table A2); details: 1900 g/ha; scored visually 9 to 12 days after treatment; 100% = plants have died, 0% = like control plants
Procedure: as §1, with “plants. Tables A1 to A8 below show the effects of selected compounds of the general formula (I) according to Table 1 on various harmful plants and an application rate corresponding to 1900 g/ha, which were obtained by the experimental procedure mentioned above.” for “plants.”

Veronica persica (VERPE) = assay: Herbicidal early post-emergence action (Table A8); details: 1900 g/ha; scored visually 9 to 12 days after treatment; 100% = plants have died, 0% = like control plants
Procedure: as §1, with “plants. Tables A1 to A8 below show the effects of selected compounds of the general formula (I) according to Table 1 on various harmful plants and an application rate corresponding to 1900 g/ha, which were obtained by the experimental procedure mentioned above.” for “plants.”

[4] = tested on: corn (ZEAMX, var. Aventura); assay: Pre-emergence crop plant compatibility (Table E1); details: dosage 80 g/ha, scored after about 3 weeks, 0% = like control plants
Description: (§2) Seeds of monocotyledonous and dicotyledonous crop plants were placed in plastic or organic plant pots and covered with soil. The compounds of the invention, formulated in the form of wettable powders (WP) or as emulsion concentrates (EC), were then applied to the surface of the covering soil as aqueous suspension or emulsion with addition of 0.5% additive at a water application rate equivalent to 600 l/ha (converted). After the treatment, the pots were placed in a greenhouse and kept under good growth conditions for the test plants. After about 3 weeks, the effect of the preparations was scored visually in comparison with untreated controls as percentages. For example, 100% activity=the plants have died, 0% activity=like control plants.

[5] = tested on: wheat (TRZAS, var. Triso); assay: Pre-emergence crop plant compatibility (Table E1); details: dosage 80 g/ha, scored after about 3 weeks, 0% = like control plants
Description: as §2

[6] = tested on: soybean (GLXMA, var. Sultana); assay: Pre-emergence crop plant compatibility (Table E1); details: dosage 80 g/ha, scored after about 3 weeks, 0% = like control plants
Description: as §2

Compound	herbicidal activity against the harmful plants of Tables A1-A8 in early post-emergence treatment [1]	Early post-emergence effect against Agrostis tenuis (AGSTE) (Agrostis tenuis (AGSTE)) [%]	Early post-emergence effect against Poa annua (POAAN) (Poa annua (POAAN)) [%]	also measured
Fc1cccc(Oc2ncc(C(F)(F)F)cc2Cl)c1-c1cc(C(F)(F)F)on1 [Example 1-5]	very good herbicidal activity	–	–	Early post-emergence effect against Diplotaxis tenuifolia (DIPTE) [2]: 80%
Fc1cccc(Oc2ccccn2)c1-c1cc(C(F)F)on1 [Example 1-8]	very good herbicidal activity	80	–	Early post-emergence effect against Diplotaxis tenuifolia (DIPTE) [2]: 80%
Fc1cccnc1Oc1cccc(F)c1-c1cc(C(F)F)on1 [Example 1-14]	very good herbicidal activity	–	–	Early post-emergence effect against Diplotaxis tenuifolia (DIPTE) [2]: 80%
Cn1nc(C(F)F)cc1-c1cc(F)ccc1Oc1ccc(Cl)cn1 [Example 1-32]	very good herbicidal activity	80	–	Early post-emergence effect against Diplotaxis tenuifolia (DIPTE) [2]: 80%
FC(F)(F)c1cccc(-c2ccccc2Oc2ccc(Cl)cn2)n1 [Example 1-49]	very good herbicidal activity	–	–	Early post-emergence effect against Stellaria media (STEME) (Stellaria media (STEME)): 80%; Early post-emergence effect against Setaria viridis (SETVI) (Setaria viridis (SETVI)): 100%
Cc1ccc(Oc2ccccc2-c2cccc(C(F)(F)F)n2)nc1 [Example 1-51]	very good herbicidal activity	–	–	Early post-emergence effect against Matricaria chamonilla (MATCH) [3]: 80%
Fc1cc(Cl)cnc1Oc1ccccc1-c1ccc(C(F)(F)F)cn1 [Example 1-66]	very good herbicidal activity	100	80	–
Fc1cc(Cl)cnc1Oc1ccccc1-c1cc(C(F)(F)F)ccn1 [Example 1-69]	very good herbicidal activity	100	100	–
FC(F)(F)c1ccnc(-c2ccccc2Oc2ccc(Cl)cn2)c1 [Example 1-70]	very good herbicidal activity	100	100	–
FC(F)(F)c1cncc(-c2ccccc2Oc2ccc(Cl)cn2)c1 [Example 1-73]	very good herbicidal activity	100	80	–
Cc1cc(C)c(-c2cc(C(F)F)no2)c(Oc2ccc(Cl)cn2)c1 [Example 1-78]	very good herbicidal activity	100	100	Early post-emergence effect against Lolium perenne (LOLPE) (Lolium perenne (LOLPE)): 80%
Cn1nc(-c2c(F)cccc2Oc2ncccc2F)cc1C(F)F [Example 1-84]	very good herbicidal activity	–	–	Early post-emergence effect against Veronica persica (VERPE) (Veronica persica (VERPE)): 80%
Cc1cc(F)c(-c2cc(C(F)F)on2)c(Oc2ncc(Cl)cc2F)c1 [Example 1-87]	very good herbicidal activity	80	80	–
Cc1cc(F)c(-c2cc(C(F)F)no2)c(Oc2ccc(Cl)cn2)c1 [Example 1-88]	very good herbicidal activity	100	100	Early post-emergence effect against Setaria viridis (SETVI) (Setaria viridis (SETVI)): 80%
Cc1cc(-c2ccccc2Oc2ccc(Cl)cn2)ncn1 [Example 1-108]	very good herbicidal activity	80	80	Early post-emergence effect against Matricaria chamonilla (MATCH) [3]: 80%
Cc1cc(-c2ccccc2Oc2ncc(Cl)cc2F)ncn1 [Example 1-109]	very good herbicidal activity	80	100	Early post-emergence effect against Diplotaxis tenuifolia (DIPTE) [2]: 80%
Fc1cc(Cl)cnc1Oc1ccccc1-c1cc(C(F)(F)F)no1 [Example 1-112]	very good herbicidal activity	100	100	Early post-emergence effect against Matricaria chamonilla (MATCH) [3]: 80%
FC(F)(F)c1cc(-c2ccccc2Oc2ccc(Cl)cn2)on1 [Example 1-113]	very good herbicidal activity	100	100	Early post-emergence effect against Matricaria chamonilla (MATCH) [3]: 80%
FC(F)c1cc(-c2ccccc2Oc2ncc(Cl)cn2)on1 [US 2016/ 333000 No. 53]	–	–	–	Crop plant compatibility in pre-emergence, ZEAMX (damage to corn) [4]: 50%; Crop plant compatibility in pre-emergence, TRZAS (damage to wheat) [5]: 20%; Crop plant compatibility in pre-emergence, GLXMA (damage to soybean) [6]: 80%
Fc1cccc(Oc2ncc(Cl)cn2)c1-c1cc(C(F)F)no1 [US 2016/ 333000 No. 144]	–	–	–	Crop plant compatibility in pre-emergence, ZEAMX (damage to corn) [4]: 30%; Crop plant compatibility in pre-emergence, TRZAS (damage to wheat) [5]: 70%; Crop plant compatibility in pre-emergence, GLXMA (damage to soybean) [6]: 100%
